# Measurements taken from patent US7341751B2, “Eggplant extract for medical treatments” (priority 2006, dated 2008).
# Experiments:
# [1] = test system: TNF-alpha secretion by peripheral blood mononuclear cells (PBMC); assay: LPS-stimulated PBMC cytokine secretion, TNF-alpha ELISA; format: cell-based, human
# From the text: (§1) FIG. 1 and the following two tables show data from an in vitro experiment using PBMC from a healthy donor who provided peripheral blood mononuclear cells (PBMC) for this experiment. (PBMC are isolated from whole blood by gradient centrifugation. PBMC contain mostly lymphocytes and monocytes (neutrophils having been excluded by the separation procedure). They are commonly used to assess immune functions in vitro.) The PBMC were stimulated with LPS. (LPS is lipopolysaccharide, a component of bacterial cell wall, which is commonly used as an antigen non-specific stimulator (also called a mitogen) of immune cell proliferation, synthesis and secretion. It is commonly used in vitro to simulate an immune response in vivo. Chemicals which block the LPS stimulated synthesis or secretion of pro-inflammatory mediators by immune cells (primarily lymphocytes and monocytes) may have similar activity in vivo and therefore may have anti-inflammatory activity in vivo.) After 24 to 48 hours, the supernatant from each culture well was collected and assayed for the pro-inflammatory mediator noted (tumer necrosis factor (TNF)-alpha or IL-1-beta using a modified enzyme linked immunosorbent assay (ELISA). […]
# [2] = test system: IL-1-beta secretion by peripheral blood mononuclear cells (PBMC); assay: LPS-stimulated PBMC cytokine secretion, IL-1-beta ELISA; format: cell-based, human
# From the text: as §1
# [3] = eggplant extract plus iron at 0.25%, percent of maximal secretion
smiles,measurement,setting,value
C[C@]12CCC(=O)C=C1CC[C@@H]1[C@@H]2[C@@H](O)C[C@@]2(C)[C@H]1CC[C@]2(O)C(=O)CO [Hydrocortisone],Mean TNF-alpha release,"[1]; eggplant extract + iron at 0.25%, supernatant after 24 to 48 hours, +LPS no drug 11753.0",298.8 picograms of cytokine per 1x10^6 cells
same,"Mean TNF-alpha released, percent of +LPS (no drug)",[1]; [3],3%
same,Mean IL-1 beta release,"[2]; eggplant extract + iron at 0.25%, supernatant after 24 to 48 hours, +LPS no drug 3507.8",1757.8 picograms of cytokine per 1x10^6 cells
same,"Mean IL-1-beta released, percent of +LPS (no drug)",[2]; [3],50%
